Experiments:
[1] = target: T1, E. coli GPP (EC-GPP, GppA) (Escherichia coli, UniProt P25552); assay: inhibition of poly-P130 hydrolysis, EnzChek phosphate release; type: biochemical; details: poly-P130 125 µM, 1 mM MnCl2, 25 mM KCl, 50 mM HEPES pH 6.8, 37°C
T1 construct: predicted 51 kDa; dimer
T1 sequence (P25552 1-494): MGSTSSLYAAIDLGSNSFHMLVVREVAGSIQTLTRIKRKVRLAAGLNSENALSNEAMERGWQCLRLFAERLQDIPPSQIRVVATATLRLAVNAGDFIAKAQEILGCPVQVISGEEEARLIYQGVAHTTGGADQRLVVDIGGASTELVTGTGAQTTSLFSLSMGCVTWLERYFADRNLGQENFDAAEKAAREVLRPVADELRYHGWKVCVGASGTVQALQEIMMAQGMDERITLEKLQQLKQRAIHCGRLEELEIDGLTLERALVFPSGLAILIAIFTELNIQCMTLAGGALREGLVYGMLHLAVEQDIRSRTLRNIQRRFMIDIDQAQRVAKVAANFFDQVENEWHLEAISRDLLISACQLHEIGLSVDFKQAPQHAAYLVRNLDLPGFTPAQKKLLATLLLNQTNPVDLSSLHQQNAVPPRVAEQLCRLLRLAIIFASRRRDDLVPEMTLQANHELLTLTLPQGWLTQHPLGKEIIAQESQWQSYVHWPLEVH
Description: inhibition of poly-P130 hydrolysis, EnzChek phosphate release on E. coli GPP (EC-GPP, GppA)

E. coli PPX (EC-PPX) = target: T2, E. coli PPX (EC-PPX) (Escherichia coli, UniProt P0AFL6); assay: as above; type: biochemical; details: poly-P130 125 µM, 1 mM MnCl2, 25 mM KCl, 50 mM HEPES pH 6.8, 37°C
T2 construct: predicted 53 kDa; dimer
T2 sequence (P0AFL6 2-513): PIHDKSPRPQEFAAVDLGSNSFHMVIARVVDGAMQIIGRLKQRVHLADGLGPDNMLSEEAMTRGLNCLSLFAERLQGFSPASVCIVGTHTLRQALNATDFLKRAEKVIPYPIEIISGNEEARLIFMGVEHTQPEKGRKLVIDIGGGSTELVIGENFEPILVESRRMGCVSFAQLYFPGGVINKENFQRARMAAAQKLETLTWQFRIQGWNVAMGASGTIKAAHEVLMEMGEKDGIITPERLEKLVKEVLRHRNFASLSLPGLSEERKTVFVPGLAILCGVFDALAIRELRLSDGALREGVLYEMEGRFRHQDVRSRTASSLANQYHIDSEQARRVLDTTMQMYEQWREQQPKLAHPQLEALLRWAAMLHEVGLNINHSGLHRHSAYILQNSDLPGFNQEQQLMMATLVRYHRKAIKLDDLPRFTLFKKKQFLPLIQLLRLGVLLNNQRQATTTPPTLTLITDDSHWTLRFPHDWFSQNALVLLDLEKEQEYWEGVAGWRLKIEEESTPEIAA
Description: inhibition of poly-P130 hydrolysis, EnzChek phosphate release on E. coli PPX (EC-PPX)

[2] = target: Rv1026 protein from Mycobacterium tuberculosis H37Rv (Mycobacterium tuberculosis H37Rv); assay: SEC + other: dynamic light scattering
[3] = target: T1, E. coli GPP (EC-GPP, GppA); assay: GTP hydrolysis, anion exchange chromatography; type: biochemical; details: 1 mM GTP, 1 mM MnCl2, 4 mM (NH4)2SO4, 50 mM Tris-HCl pH 7.4, 37°C
[4] = target: the molecule itself; assay: SEC + other: dynamic light scattering
[5] = target: the molecule itself; assay: SEC + other: dynamic light scattering; Superdex 200 gel filtration calibrated with protein standards; light scattering of 2, 1 and 0.5 mg/ml protein in 25 mM Tris-HCl pH 7.4, 25 mM NaCl (DynaPro Plate Reader Plus); self-association, dimer

Nc1nc2c(ncn2[C@@H]2O[C@H](COP(=O)(O)OP(=O)(O)O)[C@@H](OP(=O)(O)OP(=O)(O)O)[C@H]2O)c(=O)[nH]1 [ppGpp, guanosine 3′,5′-bisdiphosphate]
Exopolyphosphatase activities / +1 mM ppGpp / (% decrease) / ATPase activities [1]: 6.0±0.5% | Exopolyphosphatase activities / +1 mM ppGpp / (% decrease) / ATPase activities (E. coli PPX (EC-PPX)): 10.8±1.2%

Rv1026 protein from Mycobacterium tuberculosis H37Rv (enzyme)
stoichiometry N [2]: 2

Nc1nc2c(ncn2[C@@H]2O[C@H](COP(=O)(O)OP(=O)(O)OP(=O)(O)O)[C@@H](O)[C@H]2O)c(=O)[nH]1 [GTP]
GTP hydrolysis, anion exchange chromatography [3]: the E. coli GPP protein was a highly efficient GTPase and a modest ATPase

Nc1nc2c(ncn2[C@@H]2O[C@H](COP(=O)(O)OP(=O)(O)OP(=O)(O)O)[C@@H](OP(=O)(O)OP(=O)(O)O)[C@H]2O)c(=O)[nH]1 [pppGpp, guanosine 5′-triphosphate, 3′-diphosphate]
Exopolyphosphatase activities / +1 mM pppGpp / (% decrease) / ATPase activities [1]: 29.5±4.4% | Exopolyphosphatase activities / +1 mM pppGpp / (% decrease) / ATPase activities (E. coli PPX (EC-PPX)): 89.6±20.1%

B1: Rv0496 (MTB-PPX1) protein from Mycobacterium tuberculosis H37Rv (enzyme)
chain: MRLGVLDVGSNTVHLLVVDAHRGGHPTPMSSTKATLRLAEATDSSGKITKRGADKLISTIDEFAKIAISSGCAELMAFATSAVRDAENSEDVLSRVRKETGVELQALRGEDESRLTFLAVRRWYGWSAGRILNLDIGGGSLEVSSGVDEEPEIALSLPLGAGRLTREWLPDDPPGRRRVAMLRDWLDAELAEPSVTVLEAGSPDLAVATSKTFRSLARLTGAAPSMAGPRVKRTLTANGLRQLIAFISRMTAVDRAELEGVSADRAPQIVAGALVAEASMRALSIEAVEICPWALREGLILRKLDSEADGTALIESSSVHTSVRAVGGQPADRNAANRSRGSKP
stoichiometry N [4]: 2

B2: E. coli guanosine pentaphosphate 5'-phosphohydrolase (GPP, GppA) (enzyme, E. coli BL21 (DE3), UniProt P25552 1-494, looked up)
chain: MGSTSSLYAAIDLGSNSFHMLVVREVAGSIQTLTRIKRKVRLAAGLNSENALSNEAMERGWQCLRLFAERLQDIPPSQIRVVATATLRLAVNAGDFIAKAQEILGCPVQVISGEEEARLIYQGVAHTTGGADQRLVVDIGGASTELVTGTGAQTTSLFSLSMGCVTWLERYFADRNLGQENFDAAEKAAREVLRPVADELRYHGWKVCVGASGTVQALQEIMMAQGMDERITLEKLQQLKQRAIHCGRLEELEIDGLTLERALVFPSGLAILIAIFTELNIQCMTLAGGALREGLVYGMLHLAVEQDIRSRTLRNIQRRFMIDIDQAQRVAKVAANFFDQVENEWHLEAISRDLLISACQLHEIGLSVDFKQAPQHAAYLVRNLDLPGFTPAQKKLLATLLLNQTNPVDLSSLHQQNAVPPRVAEQLCRLLRLAIIFASRRRDDLVPEMTLQANHELLTLTLPQGWLTQHPLGKEIIAQESQWQSYVHWPLEVH
notes: also called EC-GPP; E. coli GPP; source: E. coli BL21(DE3), purified (HiTrap Chelating HP, eluted with 60 mM imidazole)
stoichiometry N [5]: 2

B3: E. coli exopolyphosphatase (PPX) (enzyme, E. coli BL21 (DE3), UniProt P0AFL6 1-513, looked up)
chain: MPIHDKSPRPQEFAAVDLGSNSFHMVIARVVDGAMQIIGRLKQRVHLADGLGPDNMLSEEAMTRGLNCLSLFAERLQGFSPASVCIVGTHTLRQALNATDFLKRAEKVIPYPIEIISGNEEARLIFMGVEHTQPEKGRKLVIDIGGGSTELVIGENFEPILVESRRMGCVSFAQLYFPGGVINKENFQRARMAAAQKLETLTWQFRIQGWNVAMGASGTIKAAHEVLMEMGEKDGIITPERLEKLVKEVLRHRNFASLSLPGLSEERKTVFVPGLAILCGVFDALAIRELRLSDGALREGVLYEMEGRFRHQDVRSRTASSLANQYHIDSEQARRVLDTTMQMYEQWREQQPKLAHPQLEALLRWAAMLHEVGLNINHSGLHRHSAYILQNSDLPGFNQEQQLMMATLVRYHRKAIKLDDLPRFTLFKKKQFLPLIQLLRLGVLLNNQRQATTTPPTLTLITDDSHWTLRFPHDWFSQNALVLLDLEKEQEYWEGVAGWRLKIEEESTPEIAA
notes: also called EC-PPX; E. coli PPX; source: E. coli BL21(DE3), purified (HiTrap Chelating HP, eluted with 60 mM imidazole)
stoichiometry N [5]: 2
